In publication PMC4569013, “Massive Bioaccumulation and Self‐Assembly of Phenazine Compounds in Live Cells” (Advanced Science, 2015):

Key:
RAW264.7 macrophages [1] = experiment: XTT colorimetric cytotoxicity assay; assay type: cell-based; settings: Mus musculus, RAW 264.7 macrophages, 72 h incubation, read-out: IC50 (cell viability, XTT)
Protocol: Cytotoxicity Measurements: A 3′‐bis(4‐methoxy‐6‐nitro)benzene‐sulfonic acid hydrate (XTT) colorimetric assay was performed to assess the cytotoxicity of the clofazmine derivatives in RAW264.7 macrophages or MDCK epithelial cells using a Cell Proliferation Kit II (Roche Chemicals, Indianapolis, IN). […] The absorbance value in each well was measured at 495 nm against a reference wavelength at 650 nm using a microplate reader (Synergy 2, BioTek Instruments, Winooski, VT). […] The IC50 value for each compound was calculated from the concentration‐response curve generated by a nonlinear regression (curve fit) method in GraphPad Prism version 5.0 (GraphPad Software, Inc., San Diego, CA). The concentration of clofazimine or its chemical derivatives used for further in vitro cell studies was determined based on cell viability (%) assay results (see the next section).

RAW264.7 macrophages [2] = experiment: Cell accumulation experiment, transmitted light microscopy of cellular staining pattern; assay type: cell-based; settings: for Inferred uptake: inferred from staining pattern after 72 hour incubation; for Observed cellular staining pattern (Notes): live cells, 72 hour incubation, 5 × 10^−6 M (2.5 × 10^−6 M for I); for Staining in fixed cells: methanol-fixed cells incubated 72 h with compound (control)
Protocol: Cell Accumulation Experiments and Transmitted Light Microscopic Examination: […] After a 24 h incubation (37 °C, 5% CO2), cells were incubated with solution of clofazmine or its chemical derivatives (300 μL of 5 × 10^−6 m concentration; measured cell viability ranging from 85% to 97% for all compounds tested at this concentration; Figure 1) in DMEM (no phenol red; plus 1 × 10^−3 M sodium pyruvate and 5% FBS). For Compound “I,” 2.5 × 10^−6 M of compound solution in media was used for the RAW 264.7 macrophages incubation because of lower cell viability at higher concentrations (IC50 = (3.95 ± 0.11) × 10^−6 M). A solution of clofazmine or other chemical derivatives was made by a diluting stock solutions (2.5 × 10^−3 M in DMSO; 10 × 10^−3 M stock in DMSO were stored at −80 °C for further use) into DMEM with 5% FBS. […] The extracellular concentration of each compound in each well was maintained by daily replacement of the compound‐containing media. After 72 h of incubation with clofazmine or its derivatives, compound‐containing media were removed and cells were washed twice with media. Live cells in the chambered glasses were examined under inverted transmitted light microscopy (Nikon Eclipse Ti microscope) with a 40× objective and color camera. As a control experiment, fixed cells were also microscopically examined after incubation with the compounds. Cells were seeded on the chambered cover glasses at the density of 1.5 × 10^4 cells cm^−2 (RAW264.7 macrophages) or 2.5 × 10^4 cells cm^−2 (MDCK epithelial cells). After an overnight incubation (37 °C, 5% CO2), media was removed from the wells and cold methanol (−20 °C) was added to each well. After 30 s, remaining methanol was removed by washing with media with 5% FBS. Fixed cells were incubated (37 °C, 5% CO2) with clofazmine or derivatives (300 μL of 5 × 10^−6 M; 2.5 × 10^−6 M for I) in media with 5% FBS. After 72 h, fixed RAW264.7 or MDCK cells were washed with media and examined using the same transmitted microscopy conditions as the live cells.

[3] = design: method as in PMID 21800872; settings: DMEM with 5% FBS; cited from earlier work
[4] = Solubility measurements in cell culture media (DMEM) with or without FBS; assay type: physicochemical; settings: at the concentrations added to the cells
Protocol: Solubility Measurements: Solutions containing the phenazine derivatives were made in cell culture media (DMEM) with or without FBS (10%). After a 24 h incubation, the solutions were centrifuged (10 000 × g, 10 min), the supernatant was removed and the precipitate was dissolved in 9 M H2SO4. The supernatant was diluted with 10 M NaOH to precipitate the remaining solubilized compound. The diluted supernatant was centrifuged (10 000 × g, 10 min) followed by dissolution of the precipitate in 9 M H2SO4. Both fractions were spectrophotometrically measured with a Biotek microplate spectrophotometer (λ = 540 nm) and phenazine content was determined using calibrated clofazimine standards.

MDCK epithelial cells = experiment: Confocal fluorescence microscopy, intracellular localization of inclusions; assay type: cell-based, Canine; settings: 5 × 10^−6 M, 72 h, live cells
Protocol: (§1) Confocal Fluorescent Microscopy: A Nikon A1 confocal microscope was used for further investigation of live cells incubated with chiral pairs of compounds (T and U) and the parent compound, P. Since crystals or vesicular forms containing chemicals inside the cells incubated with Compound P, T, or U were fluorescent when viewed with the TRITC filter sets, intracellular distribution of these compounds in RAW264.7 or MDCK cells were visualized using a Nikon A1 confocal microscopy (Nikon Instruments Inc., Melville, NY) equipped with diode‐based lasers and a Nikon Apo 60×/1.4 NA oil immersion lens. Briefly, RAW264.7 macrophages or MDCK epithelial cells were seeded in the 8‐well Nunc Lab‐Tek II chambered (#1.5) cover glasses (Thermo Scientific, Pittsburgh, PA) at a density of 8 × 10^3 cells cm^−2 (RAW264.7 cells) or 1.5 × 10^4 cells cm^−2 (MDCK cells) and allowed to adhere overnight (37 °C, 5% CO2). Then, 5 × 10^−6 M of Compound “P” or the related isomers, “T” or “U” in DMEM with 5% FBS (300 μL) was added to the cells and the cells were incubated for 72 h (37 °C, 5% CO2). For live cell imaging, after the removal of media, cells were washed with HBSS buffer twice. Hoechst 33342 (Invitrogen, Carlsbad, CA) was used for staining cell nuclei and FM 1‐43 (Molecular Probes T35356, Invitrogen) for the plasma membrane. Cells were incubated with 300 μL of 1:1 (v/v) dye mixtures of 5 μg mL^−1 Hoechst 33342 and 7 × 10^−6 M FM 1‐43 in HBSS for 15 min at room temperature. Without fixative, the confocal imaging of the live cells was performed using lasers for DAPI (excitation/emission wavelength: 405 nm/450 ± 25 nm), FITC (488 nm/525 ± 25 nm), and TRITC (561 nm/596 ± 25 nm) channels. Z‐stack images of the cells were captured along the Z‐axis (interval, 1 μm) in three fluorescence channels and analyzed by using the Nikon NIS‐Elements 3.2 confocal software (Nikon Instruments Inc., Melville, NY). […]

RAW264.7 macrophages [5] = experiment: as above; assay type: cell-based; settings: 5 × 10^−6 M, 72 h, live cells
Protocol: as §1

| Inferred uptake (RAW264.7 macrophages [2]) | Solubility in serum containing media [4] | Compound | IC50 (RAW264.7 macrophages [1]) | Observed cellular staining pattern (Notes) (RAW264.7 macrophages [2]) | Cellular staining relative to clofazimine (RAW264.7 macrophages [2]; live macrophages, 72 h) | Staining in fixed cells (RAW264.7 macrophages [2]) | Precipitate formation in media [3] | Intracellular localization of compound (fluorescence, TRITC channel) (MDCK epithelial cells) | Intracellular localization of compound (fluorescence, TRITC channel) (RAW264.7 macrophages [5]) |
| --- | --- | --- | --- | --- | --- | --- | --- | --- | --- |
| Excellent |  | OCCN=c1cc2n(-c3ccc(Cl)cc3)c3ccccc3nc-2cc1Nc1ccc(Cl)cc1 [I] | 3.95 µM | Dark brown, crystal-like inclusions present in live cells | comparable in morphology and intensity to those of clofazimine | absent in fixed cells |  |  |  |
| Moderate | stably solubilized | CC(C)/N=c1\cc2n(-c3ccc(Cl)cc3)c3ccccc3nc-2cc1Nc1ccc(Cl)cc1 [Clofazimine, clofazimine, reference compound] |  | Orange-brown staining pattern associated with perinuclear cytoplasmic vesicles |  |  | did not form visible precipitates |  |  |
| Moderate |  | CC(CN=c1cc2n(-c3ccc(Cl)cc3)c3ccccc3nc-2cc1Nc1ccc(Cl)cc1)c1ccccc1 (centres unmarked) [Compound T] |  | Faint orange perinuclear vesicles are present in live cells |  | Staining not observed in fixed cells |  | localized at the periphery of the cell nuclei | localized at the periphery of the cell nuclei |
